From ChEMBL document CHEMBL5291721, “A preclinical secondary pharmacology resource illuminates target-adverse drug reaction associations of marketed drugs” (Nat Commun, 2023)

Experiments:
[1] = target: Growth hormone secretagogue receptor type 1 (Homo sapiens, UniProt Q92847)
Melanocortin receptor 3 = Melanocortin receptor 3 (Homo sapiens, UniProt P41968)
[2] = target: Voltage-dependent L-type calcium channel subunit alpha-1C (Rattus norvegicus, UniProt P22002); assay type: functional
[3] = target: T1, Gastrin/cholecystokinin type B receptor (Homo sapiens, UniProt P32239)
T1 sequence (P32239 whole entry): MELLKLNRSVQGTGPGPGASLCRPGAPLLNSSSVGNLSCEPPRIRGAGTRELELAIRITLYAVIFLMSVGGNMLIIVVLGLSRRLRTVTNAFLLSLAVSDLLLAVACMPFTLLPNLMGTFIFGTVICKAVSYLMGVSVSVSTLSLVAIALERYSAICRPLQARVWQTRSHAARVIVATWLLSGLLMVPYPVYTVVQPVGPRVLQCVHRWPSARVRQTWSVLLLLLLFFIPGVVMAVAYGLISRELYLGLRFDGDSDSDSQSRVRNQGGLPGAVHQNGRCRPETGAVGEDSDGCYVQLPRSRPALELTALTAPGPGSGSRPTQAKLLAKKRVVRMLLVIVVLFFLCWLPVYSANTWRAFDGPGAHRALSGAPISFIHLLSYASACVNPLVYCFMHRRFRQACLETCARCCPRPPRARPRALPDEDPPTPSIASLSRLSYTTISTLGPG

[4] = target: T2, Alpha-2C adrenergic receptor (Homo sapiens, UniProt P18825); assay type: functional
T2 sequence (P18825 whole entry): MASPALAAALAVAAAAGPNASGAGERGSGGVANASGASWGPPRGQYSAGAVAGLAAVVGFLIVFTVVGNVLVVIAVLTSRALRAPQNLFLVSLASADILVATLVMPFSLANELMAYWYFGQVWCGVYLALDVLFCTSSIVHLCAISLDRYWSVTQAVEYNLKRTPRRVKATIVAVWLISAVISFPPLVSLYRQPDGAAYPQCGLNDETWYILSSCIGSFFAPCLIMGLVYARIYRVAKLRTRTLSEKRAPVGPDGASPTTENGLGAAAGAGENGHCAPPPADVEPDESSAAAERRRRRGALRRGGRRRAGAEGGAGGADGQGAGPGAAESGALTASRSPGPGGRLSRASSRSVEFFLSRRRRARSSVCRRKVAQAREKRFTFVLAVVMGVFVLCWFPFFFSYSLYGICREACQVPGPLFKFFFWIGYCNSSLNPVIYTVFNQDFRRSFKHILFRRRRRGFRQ

B2 bradykinin receptor = target: T3, B2 bradykinin receptor (Homo sapiens, UniProt P30411)
T3 sequence (P30411 whole entry): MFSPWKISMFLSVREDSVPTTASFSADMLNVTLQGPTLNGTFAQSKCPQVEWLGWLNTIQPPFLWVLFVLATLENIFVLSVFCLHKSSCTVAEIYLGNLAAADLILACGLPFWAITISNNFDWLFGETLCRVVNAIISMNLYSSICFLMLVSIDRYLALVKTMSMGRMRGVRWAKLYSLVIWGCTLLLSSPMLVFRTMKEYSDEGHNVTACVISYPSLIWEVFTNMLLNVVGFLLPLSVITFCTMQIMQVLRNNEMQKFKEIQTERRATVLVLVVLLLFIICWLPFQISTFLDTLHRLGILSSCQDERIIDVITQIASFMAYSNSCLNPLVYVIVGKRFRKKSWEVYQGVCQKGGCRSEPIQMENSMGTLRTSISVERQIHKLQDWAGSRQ

[5] = target: Neuronal acetylcholine receptor subunit alpha-4 (Homo sapiens, UniProt P43681)
Sequence of Neuronal acetylcholine receptor subunit alpha-4 (P43681 whole entry): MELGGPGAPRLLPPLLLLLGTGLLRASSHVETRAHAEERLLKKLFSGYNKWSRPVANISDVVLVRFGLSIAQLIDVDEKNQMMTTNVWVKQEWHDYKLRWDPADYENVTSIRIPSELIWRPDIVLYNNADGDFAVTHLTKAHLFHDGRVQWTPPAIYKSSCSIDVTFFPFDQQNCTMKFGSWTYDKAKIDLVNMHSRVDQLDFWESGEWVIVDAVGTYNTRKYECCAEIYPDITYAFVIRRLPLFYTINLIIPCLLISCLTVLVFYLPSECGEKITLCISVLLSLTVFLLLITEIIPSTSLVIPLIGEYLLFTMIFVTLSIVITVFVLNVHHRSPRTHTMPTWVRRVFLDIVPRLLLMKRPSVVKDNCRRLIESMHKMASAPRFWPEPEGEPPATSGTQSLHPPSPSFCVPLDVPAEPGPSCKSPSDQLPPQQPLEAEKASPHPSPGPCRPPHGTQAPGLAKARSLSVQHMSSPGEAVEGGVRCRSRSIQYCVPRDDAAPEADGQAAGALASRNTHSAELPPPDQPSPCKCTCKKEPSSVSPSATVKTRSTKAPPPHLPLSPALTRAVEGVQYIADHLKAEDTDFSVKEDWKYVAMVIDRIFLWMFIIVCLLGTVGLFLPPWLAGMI

[6] = target: Delta-type opioid receptor (Homo sapiens, UniProt P41143)
Sequence of Delta-type opioid receptor (P41143 whole entry): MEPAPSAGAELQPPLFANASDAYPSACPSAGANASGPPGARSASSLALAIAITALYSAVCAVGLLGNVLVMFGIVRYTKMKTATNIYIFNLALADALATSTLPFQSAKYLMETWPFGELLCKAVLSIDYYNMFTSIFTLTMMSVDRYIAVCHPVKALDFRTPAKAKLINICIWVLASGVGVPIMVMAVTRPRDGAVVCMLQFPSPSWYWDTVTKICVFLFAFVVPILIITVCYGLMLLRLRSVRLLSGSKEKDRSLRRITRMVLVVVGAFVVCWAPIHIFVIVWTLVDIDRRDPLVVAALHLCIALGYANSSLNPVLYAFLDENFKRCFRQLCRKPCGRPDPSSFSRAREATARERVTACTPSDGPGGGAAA

D(1A) dopamine receptor = D(1A) dopamine receptor (Homo sapiens, UniProt P21728); assay type: functional, cell-based
Sequence of D(1A) dopamine receptor (P21728 whole entry): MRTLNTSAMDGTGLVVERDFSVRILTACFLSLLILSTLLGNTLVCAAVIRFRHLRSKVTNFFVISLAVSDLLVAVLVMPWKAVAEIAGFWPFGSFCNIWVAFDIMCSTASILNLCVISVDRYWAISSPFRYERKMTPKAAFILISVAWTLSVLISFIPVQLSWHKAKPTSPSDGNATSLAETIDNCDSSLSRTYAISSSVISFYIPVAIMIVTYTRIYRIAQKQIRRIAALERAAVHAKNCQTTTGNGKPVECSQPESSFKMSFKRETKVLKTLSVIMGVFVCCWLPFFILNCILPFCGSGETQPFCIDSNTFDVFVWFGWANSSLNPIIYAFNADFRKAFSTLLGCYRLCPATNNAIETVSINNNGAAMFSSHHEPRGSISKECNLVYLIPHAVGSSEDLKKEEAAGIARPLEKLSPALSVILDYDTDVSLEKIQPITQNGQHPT

[7] = target: 3',5'-cyclic-AMP phosphodiesterase 4D (Homo sapiens, UniProt Q08499); assay type: functional
Sequence of 3',5'-cyclic-AMP phosphodiesterase 4D (Q08499 whole entry): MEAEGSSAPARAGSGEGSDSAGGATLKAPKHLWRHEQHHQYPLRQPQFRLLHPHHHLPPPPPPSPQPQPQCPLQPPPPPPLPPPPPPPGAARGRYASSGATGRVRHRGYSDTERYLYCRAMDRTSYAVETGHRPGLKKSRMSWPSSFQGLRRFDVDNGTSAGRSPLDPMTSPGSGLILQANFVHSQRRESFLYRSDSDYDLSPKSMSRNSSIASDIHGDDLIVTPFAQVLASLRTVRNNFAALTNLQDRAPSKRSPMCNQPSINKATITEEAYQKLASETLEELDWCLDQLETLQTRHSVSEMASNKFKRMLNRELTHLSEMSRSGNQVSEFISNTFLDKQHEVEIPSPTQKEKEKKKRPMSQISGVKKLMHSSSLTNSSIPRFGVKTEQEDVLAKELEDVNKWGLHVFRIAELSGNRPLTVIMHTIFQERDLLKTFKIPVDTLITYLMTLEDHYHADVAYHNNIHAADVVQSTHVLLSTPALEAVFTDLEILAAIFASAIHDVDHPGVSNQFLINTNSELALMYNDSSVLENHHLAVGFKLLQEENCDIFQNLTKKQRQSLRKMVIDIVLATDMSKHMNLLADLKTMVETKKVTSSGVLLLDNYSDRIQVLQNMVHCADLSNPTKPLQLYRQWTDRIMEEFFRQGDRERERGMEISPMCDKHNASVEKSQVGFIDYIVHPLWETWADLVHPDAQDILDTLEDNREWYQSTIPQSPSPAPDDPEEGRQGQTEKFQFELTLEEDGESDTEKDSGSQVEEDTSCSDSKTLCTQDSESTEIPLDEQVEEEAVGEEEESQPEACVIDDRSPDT

[8] = target: 5-hydroxytryptamine receptor 2B (Homo sapiens, UniProt P41595); assay type: functional, cell-based
Sequence of 5-hydroxytryptamine receptor 2B (P41595 whole entry): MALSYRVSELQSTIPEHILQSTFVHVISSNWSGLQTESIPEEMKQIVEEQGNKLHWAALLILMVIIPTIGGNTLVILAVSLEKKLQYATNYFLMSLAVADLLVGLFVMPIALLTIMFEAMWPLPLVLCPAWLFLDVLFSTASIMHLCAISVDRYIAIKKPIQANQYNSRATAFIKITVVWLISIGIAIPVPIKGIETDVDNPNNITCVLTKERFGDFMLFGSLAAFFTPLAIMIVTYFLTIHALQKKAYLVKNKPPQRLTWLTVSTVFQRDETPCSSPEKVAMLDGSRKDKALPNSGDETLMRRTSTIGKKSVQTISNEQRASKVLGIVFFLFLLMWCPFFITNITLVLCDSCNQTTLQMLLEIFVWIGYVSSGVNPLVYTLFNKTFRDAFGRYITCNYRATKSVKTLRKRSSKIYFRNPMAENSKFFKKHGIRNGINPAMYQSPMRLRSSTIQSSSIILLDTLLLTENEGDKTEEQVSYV

[9] = target: T4, Alpha-2A adrenergic receptor (Homo sapiens, UniProt P08913); assay type: functional, cell-based
T4 sequence (P08913 whole entry): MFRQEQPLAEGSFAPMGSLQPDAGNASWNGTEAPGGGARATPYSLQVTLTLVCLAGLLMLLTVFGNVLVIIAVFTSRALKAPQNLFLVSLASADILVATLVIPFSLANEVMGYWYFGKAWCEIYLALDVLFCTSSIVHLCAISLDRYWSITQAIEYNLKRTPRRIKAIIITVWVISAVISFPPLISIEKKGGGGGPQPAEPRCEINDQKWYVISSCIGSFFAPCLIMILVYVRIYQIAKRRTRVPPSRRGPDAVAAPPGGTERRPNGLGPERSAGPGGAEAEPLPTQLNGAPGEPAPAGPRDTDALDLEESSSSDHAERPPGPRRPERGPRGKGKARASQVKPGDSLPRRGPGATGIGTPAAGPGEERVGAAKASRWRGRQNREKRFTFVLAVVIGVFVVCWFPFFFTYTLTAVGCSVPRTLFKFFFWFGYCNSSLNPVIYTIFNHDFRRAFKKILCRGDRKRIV

[10] = target: T5, Prostaglandin G/H synthase 1 (Rattus norvegicus, UniProt Q63921); assay type: functional
T5 sequence (Q63921 whole entry): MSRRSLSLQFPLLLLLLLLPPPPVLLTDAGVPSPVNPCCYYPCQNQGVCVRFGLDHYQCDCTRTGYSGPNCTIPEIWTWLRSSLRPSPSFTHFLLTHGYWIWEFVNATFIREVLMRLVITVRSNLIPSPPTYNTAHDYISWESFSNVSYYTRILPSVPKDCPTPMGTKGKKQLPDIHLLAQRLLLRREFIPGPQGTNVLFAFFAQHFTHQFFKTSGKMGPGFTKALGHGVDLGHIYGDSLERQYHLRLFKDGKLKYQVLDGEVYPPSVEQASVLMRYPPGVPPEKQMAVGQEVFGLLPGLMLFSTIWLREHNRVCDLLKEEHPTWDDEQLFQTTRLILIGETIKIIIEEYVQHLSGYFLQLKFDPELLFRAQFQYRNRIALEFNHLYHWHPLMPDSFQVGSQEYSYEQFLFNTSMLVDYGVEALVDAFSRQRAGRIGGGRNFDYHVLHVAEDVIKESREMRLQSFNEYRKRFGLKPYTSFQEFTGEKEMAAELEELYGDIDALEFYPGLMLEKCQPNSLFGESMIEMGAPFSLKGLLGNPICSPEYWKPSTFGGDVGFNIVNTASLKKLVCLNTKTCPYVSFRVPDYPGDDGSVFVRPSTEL
Also: assay procedure not described here.

Sequence of Growth hormone secretagogue receptor type 1 (Q92847 whole entry): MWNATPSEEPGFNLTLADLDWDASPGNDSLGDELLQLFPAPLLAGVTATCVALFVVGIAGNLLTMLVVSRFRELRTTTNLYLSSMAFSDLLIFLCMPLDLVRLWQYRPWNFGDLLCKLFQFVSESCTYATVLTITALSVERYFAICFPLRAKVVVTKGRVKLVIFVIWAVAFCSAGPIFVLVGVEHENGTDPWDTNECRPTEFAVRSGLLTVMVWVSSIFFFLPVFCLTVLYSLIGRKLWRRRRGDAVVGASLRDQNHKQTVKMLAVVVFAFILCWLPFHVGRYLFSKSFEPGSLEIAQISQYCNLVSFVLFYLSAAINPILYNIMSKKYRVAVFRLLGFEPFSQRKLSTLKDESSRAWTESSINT
Sequence of Melanocortin receptor 3 (P41968 whole entry): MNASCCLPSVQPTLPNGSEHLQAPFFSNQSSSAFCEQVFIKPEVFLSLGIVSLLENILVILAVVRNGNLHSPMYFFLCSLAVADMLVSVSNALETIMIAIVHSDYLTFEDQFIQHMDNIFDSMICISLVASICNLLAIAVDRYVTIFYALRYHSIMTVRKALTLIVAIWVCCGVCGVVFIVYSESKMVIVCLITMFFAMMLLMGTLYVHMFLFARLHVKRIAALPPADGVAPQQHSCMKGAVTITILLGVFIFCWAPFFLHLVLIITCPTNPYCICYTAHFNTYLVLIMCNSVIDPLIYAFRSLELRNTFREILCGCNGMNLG

| AC50 [1] [µM] | AC50 (Melanocortin receptor 3) [µM] | AC50 [2] [µM] | AC50 [3] [µM] | AC50 [4] [µM] | AC50 (B2 bradykinin receptor) [µM] | AC50 [5] [µM] | AC50 [6] [µM] | AC50 (D(1A) dopamine receptor) [µM] | AC50 [7] [µM] | AC50 [8] [µM] | AC50 [9] [µM] | AC50 [10] [µM] | Compound |
| --- | --- | --- | --- | --- | --- | --- | --- | --- | --- | --- | --- | --- | --- |
| > 30 | > 30 | > 10 | > 30 | > 10 | > 30 | > 10 | > 30 | > 10 | > 30 | > 10 | > 10 | > 30 | CCOC(=O)C(C)(C)Oc1ccc(Cl)cc1 [CLOFIBRATE] |
| > 30 | > 30 | > 10 | > 30 | > 30 | > 30 | > 30 | > 30 | > 30 | > 30 | > 10 | > 10 | > 30 | C[C@@H]1C[C@H]2[C@@H]3CCC4=CC(=O)C=C[C@]4(C)[C@@]3(F)[C@@H](O)C[C@]2(C)[C@@]1(O)C(=O)CO [DEXAMETHASONE] |
| > 30 | > 30 | > 30 | > 30 | 1.2 | > 30 | > 30 | > 30 | 23 | 29 | > 30 | > 30 | > 30 | Oc1ccc(CCNCCCCCCNCCc2ccccc2)cc1O [DOPEXAMINE] |
| > 30 | > 30 | > 30 | > 30 | > 30 | > 30 | > 30 | > 30 | > 30 | > 30 | > 30 | > 30 | > 30 | CCN1CC(CCN2CCOCC2)C(c2ccccc2)(c2ccccc2)C1=O (stereo not drawn) [DOXAPRAM] |
| > 30 | > 30 | > 10 | > 30 | 8.4 | > 30 | > 10 | > 10 | > 10 | 11 | > 10 | > 10 | > 30 | CCCCOc1ccc(C(=O)CCN2CCCCC2)cc1 [DYCLONINE] |
| > 30 | > 30 | 2.5 | > 30 | 7.8 | > 30 | > 10 | 0.83 | > 10 | > 30 | 19.1 | – | > 30 | Fc1ccc([C@@H]2CCNC[C@H]2COc2ccc3c(c2)OCO3)cc1 [PAROXETINE] |

The remaining lines, values behind:

| Compound | AC50 [1] [µM] | AC50 (Melanocortin receptor 3) [µM] | AC50 [2] [µM] | AC50 [3] [µM] | AC50 [4] [µM] | AC50 (B2 bradykinin receptor) [µM] | AC50 [5] [µM] | AC50 [6] [µM] | AC50 (D(1A) dopamine receptor) [µM] | AC50 [7] [µM] | AC50 [8] [µM] | AC50 [9] [µM] | AC50 [10] [µM] |
| --- | --- | --- | --- | --- | --- | --- | --- | --- | --- | --- | --- | --- | --- |
| Oc1cc(O)c(Cl)cn1 | > 30 | > 30 | > 30 | > 30 | > 30 | > 30 | > 30 | > 30 | > 30 | > 30 | > 30 | > 30 | > 30 |
| CC(C)N(CCCCOCC(=O)O)c1cnc(-c2ccccc2)c(-c2ccccc2)n1 | > 30 | > 30 | > 30 | > 3 | > 30 | > 10 | > 30 | > 30 | 7.3 | 14.3 | > 30 | > 30 | > 30 |
| Cc1cc(=O)n(-c2ccccc2)n1C [ANTIPYRINE] | > 30 | > 30 | > 10 | > 30 | > 10 | > 30 | > 10 | > 30 | > 10 | > 30 | > 10 | > 10 | > 30 |
| O=C(O)CCNC(=O)c1ccc(/N=N/c2ccc(O)c(C(=O)O)c2)cc1 [BALSALAZIDE] | > 30 | > 30 | > 30 | > 30 | > 30 | > 30 | > 30 | > 30 | > 30 | > 30 | > 30 | > 30 | > 30 |
| O=C(CCCN1CCC(O)(c2ccc(Br)cc2)CC1)c1ccc(F)cc1 [BROMPERIDOL] | 6.9 | > 30 | > 30 | > 30 | – | > 30 | > 30 | > 30 | > 30 | > 30 | 7.3 | – | > 30 |
| Clc1ccc(CCC(Cn2ccnc2)Sc2c(Cl)cccc2Cl)cc1 (stereo not drawn) [BUTOCONAZOLE] | > 30 | > 30 | 17 | > 30 | > 30 | > 30 | > 30 | > 30 | > 30 | 11 | > 30 | > 30 | 14 |
| CC(CN(C)C)C(C)(O)Cc1ccc(Cl)cc1 (stereo not drawn) [CLOBUTINOL] | > 30 | > 30 | > 10 | > 30 | > 10 | > 30 | > 10 | > 30 | > 10 | > 30 | > 10 | > 10 | > 30 |
| Cc1ccnc2c1NC(=O)c1cccnc1N2C1CC1 [NEVIRAPINE] | > 30 | > 30 | > 10 | > 30 | > 10 | > 30 | – | > 10 | > 10 | > 10 | > 10 | > 10 | > 30 |
